These are literature values, as cited in patent US12427123B2, “Phenylephrine hydrochloride compositions and containers” (Endo Operations Limited, priority 2020, dated 2025).

Like-named read-outs stand apart in the source and are kept apart here.

Test in data set [1]: not given
The source holds these as a separate data set.

`CNC[C@H](O)c1cccc(O)c1.Cl` [Phenylephrine hydrochloride]: the solubility result runs as follows: (chloroform) “insoluble”; (ethanol) “freely soluble”; (ethyl ether) “insoluble”; (water) “very soluble”.
As for `CNC[C@H](O)c1cccc(O)c1` [phenylephrine], the “dose excreted unchanged in the urine” value in data set [1] (in vivo) was 12%. Further, the α-phase half-life in data set [1] (intravenous administration, 2-compartment model, distribution from central compartment) is recorded as less than 5 min. In addition, the “optical stability (racemization as a function of pH)” value (solutions at pH 3.0 and pH 6.0) is “optically stable”.
